Earlier results as cited in article PMC9921896 (Molecules, 2023).

Experiments:
[1] = cited from earlier work
[2] = cited from earlier work; remark: listed apart in the source
estrogenicity = details: cited from earlier work

CC(C)(c1ccc(O)cc1)c1ccc(O)cc1 [BPA, Bisphenol A]
new TDI (draft opinion) ([1]; EFSA draft opinion): 0.04 ng (kg bw)^−1 day^−1 | t-TDI ([1]; set by EFSA in 2015): 4 μg (kg bw)^−1 day^−1 | highest dose level with no negative impact on the health ([2]; CLARITY-BPA core study): 25,000 μg kg bw^−1 day^−1 | lowest-observed-adverse-effect level (LOAEL) ([2]; suggested from low-dose effects): 2.5 μg (kg bw)^−1 day^−1

CC(C)(c1ccc(O)cc1)c1ccc(O[C@@H]2O[C@H](C(=O)O)[C@@H](O)[C@H](O)[C@H]2O)cc1 [BPA-based Glucuronide metabolite, reference compound]
estrogenicity (estrogenicity; BPA glucuronide): non-estrogenic

C=C(CC(C)(C)c1ccc(O)cc1)c1ccc(O)cc1 [MBP, 4-methyl-2,4-bis(p-hydroxyphenyl) pent-1-ene, reference compound]
estrogenicity relative to BPA (estrogenicity; metabolite formed with rat liver S9 fraction): several-thousand-fold
